Test results taken from patent EP1489910B1 (priority 2002, dated 2003).
Several values for one entry are separate records, joined by “and”; a condition that tells them apart may be missing. Identical values can stand only once. Like-named read-outs stand apart in the source and are kept apart here.

Legend:
cucumber mosaic virus = type: in vivo, Cucumber mosaic virus (CMV)
influenza A2 (Japan 305) = tested on: influenza A2 (Japan 305); set-up: dose or concentration left out as unconfirmed; details: in-vitro; 1/4 of its estimated maximum tolerated concentration; cited from earlier work
CMV = details: plants infected with CMV; one range printed for CMV and ToMV; cited from earlier work
ToMV = details: plants infected with ToMV; one range printed for CMV and ToMV; cited from earlier work
HSV = details: legend not given; cited from earlier work
PVX = details: susceptible virus PVX; cited from earlier work
CLSV = details: susceptible virus CLSV; cited from earlier work
herpes viruses = details: in-vitro; cited from earlier work
measles = details: in-vitro; cited from earlier work
HSVlesions = HSVlesions in humans; cited from earlier work
Vaccinia = details: legend not given; cited from earlier work
adenovirus = details: no symbol given; cited from earlier work
VSV = details: legend not given; cited from earlier work
HSV Keratitis = HSV Keratitis in rabbits; cited from earlier work
[1] = tested on: pseudorabies virus (Suid herpes virus 1, SHV-1); details: cited from earlier work
[2] = 1000-ppm 2-Thiouracil as control

Compound: O=c1cc[nH]c(=S)[nH]1 [2-Thiouracil]
- Average No of lesions Control (cucumber mosaic virus; [2]): 1.9 and 1.7 and 1.1
- No of lesions on Control (cucumber mosaic virus; [2]): 19 and 17 and 11

Compound: NC12CC3CC(CC(C3)C1)C2 [Amantadine]
- Average No of lesions Control (cucumber mosaic virus; 1000-ppm Amantadine as control): 4.5 and 4.0 and 4.8
- No of lesions on Control (cucumber mosaic virus; 1000-ppm Amantadine as control): 45 and 40 and 48
- inhibition of influenza A2 (Japan 305) (influenza A2 (Japan 305)): 98%

Compound: O=C1NCCCN1CN1CCOCC1 [DD13, 1-Morpholino methyl-tetrahydro-2-(1H)-pyrimidinone]
- protective effect in % plants infected (CMV): 97-100%
- protective effect in % plants infected (ToMV): 97-100%

Compound: CC1(C)[C@@H](O)CC[C@]2(C)[C@H]3C(=O)C=C4[C@@H]5C[C@@](C)(C(=O)O)CC[C@]5(C)CC[C@@]4(C)[C@]3(C)CC[C@@H]12 [Glycyrrhetinic acid]
- Virucidal (HSV): +HSV only

Compound: CC1(C)[C@@H](O[C@H]2O[C@H](C(=O)O)[C@@H](O)[C@H](O)[C@H]2O[C@@H]2O[C@H](C(=O)O)[C@@H](O)[C@H](O)[C@H]2O)CC[C@]2(C)[C@H]3C(=O)C=C4[C@@H]5C[C@@](C)(C(=O)O)CC[C@]5(C)CC[C@@]4(C)[C@]3(C)CC[C@@H]12 [Glycyrrhizin]
- Virucidal (HSV): +slight effect

Compound: NC(=O)c1ncn([C@@H]2O[C@H](CO)[C@@H](O)[C@H]2O)n1 [Ribavirin]
- concentration needed to inhibit local lesion development and to prevent infection (PVX): Approximately 1000 ppm
- concentration needed to inhibit local lesion development and to prevent infection (CLSV): Approximately 1000 ppm

Compound: C[C@H]1O[C@@H](O[C@H]2CC[C@@]3(C)[C@@H](CC[C@]4(C)[C@@H]3C=C[C@]35OC[C@@]6(CCC(C)(C)C[C@H]63)[C@H](O)C[C@]54C)[C@]2(C)CO)[C@H](O)[C@@H](O[C@@H]2O[C@H](CO)[C@@H](O)[C@H](O)[C@H]2O)[C@H]1O [Saikosaponin-d]
- concentration that causes inactivation (herpes viruses): greater than 5 µM
- concentration that causes inactivation (measles): greater than 5 µM

Compound: Carbenoxolone/ cicloxolone
- Active in vivo (HSVlesions): HSVlesions in humans
- Virucidal (HSV): +HSV

Compound: Hydroxy-protoprimulagenin
- Other viruses: Vaccinia (Vaccinia): VSV Vaccinia adenovirus
- Other viruses: adenovirus (adenovirus): VSV Vaccinia adenovirus
- Other viruses: VSV (VSV): VSV Vaccinia adenovirus
- Virucidal (HSV): +HSV only
- Active in vivo (HSV Keratitis): HSV Keratitis in rabbits

Compound: crossasteroside B
- inhibit plaque formation [1]: 43%

Compound: crossasteroside D
- inhibit plaque formation [1]: 27%
